Results reported in the NIST ThermoML archive (doi:10.1016/j.jct.2012.11.011).

Experiment: xn = mol fraction of the nth substance listed
Conditions: Liquid, Vibrating tube method

CCOC(=O)OCC [diethyl carbonate] + CCCCCCCCCC
mass density [kg/m3]
Conditions | x1 = 0.0538 | x1 = 0.1716 | x1 = 0.2151 | x1 = 0.3257 | x1 = 0.5032 | x1 = 0.5482 | x1 = 0.7985 | x1 = 0.8989 | x1 = 0.9487
288.15 K, 100 kPa | 740.8 | 759.4 | 766.3 | 786.5 | 821.3 | 832.2 | 903.2 | 937.5 | 956.9
288.15 K, 5000 kPa | 744.5 | 763.3 | 770.2 | 790.5 | 826.7 | 836.6 | 907.4 | 943.6 | 963
288.15 K, 10000 kPa | 748 | 766.8 | 773.7 | 794.3 | 830.7 | 840.6 | 911.5 | 947.7 | 967.1
288.15 K, 20000 kPa | 754.6 | 773.6 | 780.5 | 801.2 | 837.8 | 847.8 | 919 | 955.4 | 974.8
288.15 K, 30000 kPa | 760.6 | 780.9 | 786.9 | 807.5 | 844.6 | 854.5 | 926 | 962.6 | 981.9
288.15 K, 40000 kPa | 766.4 | 785.6 | 792.8 | 813.8 | 850.9 | 860.9 | 932.8 | 969.5 | 988.9
298.15 K, 100 kPa | 733.1 | 751.2 | 758 | 777.9 | 813.5 | 823.1 | 892.8 | 928.3 | 947.6
298.15 K, 5000 kPa | 737.6 | 755.8 | 762.6 | 782.6 | 818.2 | 827.8 | 897.7 | 933.5 | 952.7
298.15 K, 10000 kPa | 740.7 | 759.1 | 766 | 786.1 | 821.9 | 831.7 | 901.5 | 937.5 | 956.6
298.15 K, 20000 kPa | 747.7 | 766.2 | 773.1 | 793.5 | 829.7 | 839.4 | 909.6 | 945.7 | 964.8
298.15 K, 30000 kPa | 753.9 | 772.6 | 779.8 | 800.2 | 836.7 | 846.5 | 917.1 | 953.2 | 972.2
298.15 K, 40000 kPa | 759.8 | 778.7 | 785.8 | 806.5 | 843.3 | 853.1 | 924.1 | 960.2 | 979.3
308.15 K, 100 kPa | 725.5 | 743.2 | 749.9 | 769.4 | 804.4 | 813.9 | 882.5 | 917.7 | 936.6
308.15 K, 5000 kPa | 729.6 | 747.5 | 754.3 | 773.9 | 809 | 818.4 | 887.3 | 922.6 | 941.5
308.15 K, 10000 kPa | 733.6 | 751.6 | 758.4 | 778.1 | 813.5 | 823 | 892 | 927.1 | 946.2
308.15 K, 20000 kPa | 740.7 | 758.9 | 765.9 | 785.9 | 821.4 | 831 | 900.5 | 935.7 | 954.6
308.15 K, 30000 kPa | 747.5 | 765.8 | 772.7 | 792.9 | 828.9 | 838.4 | 908.2 | 943.8 | 962.7
308.15 K, 40000 kPa | 753.6 | 772.1 | 779.1 | 799.4 | 835.8 | 845.3 | 915.6 | 951.2 | 970.2

CCOC(=O)OCC [diethyl carbonate] + CCCCCCCC
mass density [kg/m3]
Conditions | x1 = 0.0522 | x1 = 0.1042 | x1 = 0.1671 | x1 = 0.322 | x1 = 0.3657 | x1 = 0.5075 | x1 = 0.6922 | x1 = 0.8002 | x1 = 0.9206 | x1 = 0.9459
288.15 K, 100 kPa | 716 | 726.1 | 738.6 | 772.6 | 784 | 820.5 | 874.2 | 908.5 | 951 | 959.8
288.15 K, 5000 kPa | 720.1 | 730.4 | 742.8 | 778.1 | 788.4 | 824.9 | 879.4 | 912.8 | 954.9 | 964.3
288.15 K, 10000 kPa | 723.9 | 734.4 | 746.8 | 782.1 | 792.6 | 829 | 883.7 | 917 | 958.8 | 968.6
288.15 K, 20000 kPa | 731.2 | 741.6 | 754.1 | 789.6 | 800.1 | 836.8 | 891.6 | 925 | 966.5 | 976.3
288.15 K, 30000 kPa | 737.8 | 748.2 | 760.7 | 796.5 | 807.1 | 843.9 | 898.5 | 932.1 | 973.8 | 983.3
288.15 K, 40000 kPa | 744 | 754.5 | 767.2 | 803.1 | 813.7 | 850.5 | 907.6 | 939 | 980.7 | 990.3
298.15 K, 100 kPa | 707.7 | 717.7 | 729.9 | 764.5 | 774.7 | 810.7 | 864.7 | 897.7 | 939.2 | 949.3
298.15 K, 5000 kPa | 712.5 | 722.5 | 734.7 | 769.5 | 779.7 | 815.8 | 869.8 | 902.8 | 944.2 | 953.8
298.15 K, 10000 kPa | 716.3 | 726.3 | 738.5 | 773.4 | 783.7 | 819.8 | 873.8 | 906.9 | 948.2 | 957.7
298.15 K, 20000 kPa | 723.9 | 734 | 746.3 | 781.4 | 791.8 | 828.1 | 882 | 915.2 | 956.4 | 965.9
298.15 K, 30000 kPa | 730.8 | 741 | 753.4 | 788.8 | 799.1 | 835.6 | 889.8 | 922.8 | 964 | 973.6
298.15 K, 40000 kPa | 737.2 | 747.4 | 759.9 | 795.5 | 805.9 | 842.4 | 896.9 | 929.9 | 971.1 | 980.7
308.15 K, 100 kPa | 699.6 | 709.3 | 721.2 | 755.4 | 765.4 | 801 | 854.3 | 887.1 | 928 | 937.6
308.15 K, 5000 kPa | 704.2 | 714 | 725.9 | 760.4 | 770.4 | 805.9 | 859.3 | 892 | 932.9 | 942.6
308.15 K, 10000 kPa | 708.7 | 718.5 | 730.5 | 765.1 | 775.1 | 810.8 | 864.1 | 896.8 | 937.6 | 947.3
308.15 K, 20000 kPa | 716.6 | 726.5 | 738.7 | 773.3 | 783.6 | 819.4 | 873 | 905.6 | 946.3 | 956
308.15 K, 30000 kPa | 723.8 | 733.9 | 746.2 | 781.1 | 791.2 | 827.2 | 880.9 | 913.7 | 954.3 | 964.1
308.15 K, 40000 kPa | 730.5 | 740.7 | 753 | 788 | 798.3 | 834.6 | 888.3 | 921.2 | 961.9 | 971.5
